Reference: patent US20260315431A1, “NANOMATERIAL ENCAPSULATED BIOFILM INHIBITORS FOR DENTAL CARIES TREATMENT” (THE UAB RESEARCH FOUNDATION, priority 2023, published 2026)
Entries after “also recorded” stand apart in the source; their conditions may differ.

Tests used:
[1] = system: S. gordonii DL1; experiment: Commensal biofilm inhibition, S. gordonii DL1 (crystal violet, OD562); format: cell-based, Streptococcus gordonii; conditions: for S. gordonii biofilm: 25 μM
Description: (§1) The bacterial strains, S. mutans UA159, S. gordonii DL1, and S. sanguinis SK36 were inoculated statically at 37° C. under 5% CO2 in Todd Hewitt Broth (THB) for 24 h. The cultures were then diluted with fresh THB (1:5) and reinoculated until optical density at 470 nm (OD470) reached 1. The optical density was read using BioTek 800TS microplate reader at 470 nm for bacterial growth and 562 nm for biofilm stained with crystal violet. Data was plotted in Graphpad Prism9.
Biofilm inhibition assays. Biofilm inhibition assays were performed in polystyrene microtiter 96 well plates. Stock solutions were prepared in chemically defined medium (CDM, JRH Biosciences, Lenexa, KS) with 2% sucrose, 1% bacteria cultures and various concentrations of the small molecule inhibitors to examine their activity against biofilm formation as described^69, 70. These stocks were assayed in 96 well plates in triplicate and incubated at 37° C. and 5% CO2 for 16 h. After reading optical density for bacterial growth, the plate was gently washed with water, dried, and stained with crystal violet, and then gently rinsed again with deionized water leaving the stained biofilm at the bottoms of the wells. Biofilms was dissolved in 200 μL of 30% acetic acid and absorbance at 562 nm was used read to determine biofilm biomass. Each assay was carried out at least in triplicate. Biofilm inhibitory concentration (IC50) of the compounds was determined by serial dilutions.
All bacterial strains (S. mutans UA159, S. gordonii DL1, and S. sanguinis SK36) were inoculated statically at 37° C. under 5% CO2 environment in Todd Hewitt Broth (THB) for 24 h^[61]. […] The optical density was read using BioTek 800 TS absorbance reader at 470 nm for bacterial growth and 562 nm for biofilm stained with crystal violet. […]
Biofilm inhibition assays were performed in polystyrene microtiter 96-well plates. […] After reading optical density for bacterial growth, the plate was washed, dried, and stained with 0.1% crystal violet which was again rinsed well with deionized water leaving the stained biofilm at the bottoms of the wells. […]

[2] = biological target: GtfB (Streptococcus mutans, UniProt P08987); experiment: HA5/GtfB X-ray co-crystal structure; format: binding; conditions: catalytic domain of GtfB
Sequence of GtfB (P08987 265-1143): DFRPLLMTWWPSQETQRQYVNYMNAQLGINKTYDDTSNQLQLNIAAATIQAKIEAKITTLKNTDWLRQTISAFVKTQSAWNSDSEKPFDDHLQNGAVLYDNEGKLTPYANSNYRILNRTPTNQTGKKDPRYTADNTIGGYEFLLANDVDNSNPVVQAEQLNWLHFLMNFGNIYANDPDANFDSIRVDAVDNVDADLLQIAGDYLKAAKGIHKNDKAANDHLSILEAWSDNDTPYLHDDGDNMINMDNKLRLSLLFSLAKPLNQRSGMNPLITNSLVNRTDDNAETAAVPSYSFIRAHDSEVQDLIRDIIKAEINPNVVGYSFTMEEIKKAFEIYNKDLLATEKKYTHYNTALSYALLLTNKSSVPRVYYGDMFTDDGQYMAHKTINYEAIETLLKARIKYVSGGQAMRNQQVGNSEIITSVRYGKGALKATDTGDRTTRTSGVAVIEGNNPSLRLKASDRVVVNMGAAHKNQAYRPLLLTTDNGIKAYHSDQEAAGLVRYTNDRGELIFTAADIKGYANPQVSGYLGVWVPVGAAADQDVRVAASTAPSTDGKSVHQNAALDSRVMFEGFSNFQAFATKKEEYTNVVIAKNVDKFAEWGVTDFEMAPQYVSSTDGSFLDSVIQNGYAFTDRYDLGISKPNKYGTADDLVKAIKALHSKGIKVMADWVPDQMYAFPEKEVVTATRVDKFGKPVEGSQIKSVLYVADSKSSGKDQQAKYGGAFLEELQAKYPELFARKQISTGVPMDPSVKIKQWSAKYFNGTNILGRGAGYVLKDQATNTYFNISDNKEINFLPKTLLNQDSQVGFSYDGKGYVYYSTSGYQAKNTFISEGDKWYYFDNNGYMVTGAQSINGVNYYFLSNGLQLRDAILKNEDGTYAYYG

[3] = system: S. sanguinis SK36; experiment: Planktonic growth, S. sanguinis SK36 (OD470); format: cell-based, Streptococcus sanguinis
Description: as §1
(§2) S. mutans, S. gordonii, and S. sanguinis growth assays. Effects of compounds on S. mutans and commensal bacterial growth were evaluated using the growth assay as described^69. S. mutans UA159, S. gordonii DL1, S. sanguinis SK36, cultures were grown for 24 h under 5% CO2 at 37° C. These cultures were then reinoculated with fresh THB (1:5) until OD470=1 when the bacteria were ready to be used. Different concentrations of the inhibitor were assayed in chemically defined media (CDM) with 1% of the bacteria, 1% sucrose and 1% DMSO in 96 well plates. The 96 well plates were incubated under 5% CO2 at 37° C. for 16 h. Growth of the bacteria was read after 16 h at OD470. Each assay was carried out at least in triplicate.
All bacterial strains (S. mutans UA159, S. gordonii DL1, and S. sanguinis SK36) were inoculated statically at 37° C. under 5% CO2 environment in Todd Hewitt Broth (THB) for 24 h^[61]. The cultures were then diluted with fresh THB (1:5) and reinoculated until the optical density at 470 nm reaches 1. The optical density was read using BioTek 800 TS absorbance reader at 470 nm for bacterial growth and 562 nm for biofilm stained with crystal violet. Data was plotted in Prism 10.0.2.
as §2, with “Effects” for “S. mutans, S. gordonii, and S. sanguinis growth assays. Effects”, “PEHA5, PEHA6, HA5 or HA6” for “compounds”, “described^[62].” for “described^69.”, “PEHA5, PEHA6, HA5 or HA6” for “inhibitor”, “CDM” for “chemically defined media (CDM)”

Row | SMILES | S. gordonii biofilm [1] | inhibition at 25 µM ([1]; Streptococcus gordonii, DL1) [%] | binding in HA5/GtfB co-crystal structure [2] | planktonic growth of S. sanguinis ([3]; 25 μM) | growth of S. sanguinis ([3]; 50 μM and 100 μM (100 μM)) | growth of S. sanguinis ([3]; at biofilm inhibiting doses) | growth of S. sanguinis ([3]; 25 μM and 50 μM)
1 | O=C1/C(=C/c2cc(O)c(O)cc2O)Oc2ccccc21 [HA5, 2-[(2′,4′,5′-Trihydroxyphenyl)methylidene]-2,3-dihydro-1-benzofuran-3-one] | minimal | ~20 | binding in the catalytic site of GtfB; also recorded: does not show any covalent bond | did not affect the planktonic growth | did not inhibit the growth; also recorded: does not inhibit the growth | without affecting the growth | –
2 | O=C1/C(=C/c2cc(O)c(O)c(O)c2)Oc2ccccc21 [HA6, 2-[(3′,4′,5′-Trihydroxyphenyl)methylidene]-2,3-dihydro-1-benzofuran-3-one] | did not significantly reduce the biofilms | – | – | – | – | without affecting the growth | did not inhibit the growth
